Target: T1, human fyn SH2 domain (Homo sapiens, UniProt P06241)
T1 construct: made in house; host or cells: E. coli (pGEX-2T)
Assay: ELISA-based SH2 domain / pY peptide binding assay, fyn SH2 domain
Experimental: The inhibitory activity of compounds at the different human SH2 domains was determined in vitro using SH2 domains expressed as fusion proteins in E. coli. The SH2 domains used herein were the human forms of the src SH2 domain, Grb2 SH2 domain, lck SH2 domain, fyn SH2 domain, SH-PTP2 SH2 domain, p85 SH2 domain and hcp SH2 domain.
Fusion proteins having the structure GST-X-SH2 were prepared as described in the GST gene fusion kit system available from Pharmacia (New Jersey). GST is the tagging sequence glutathione s-transferase epitope (SEQ ID NO: 8) for fyn, Grb2 and SH-PTP2 and is the tagging sequence glutathione s-transferase epitope (SEQ ID NO: 9) for p85. SH2 refers to the SH2 domains of fyn, Grb2, p85 and SH-PTP2 which were expressed and purified using glutathione Sepharose 4B (Pharmacia) according to "Current Protocols in Molecular Biology", ed. FM Ausubel et al., pub. John Wiley and Sons, Inc., (1995), p 16.7.1. X is an appropriate linker, preferably of 6 to 21 base pairs, used to keep the SH2 construct in frame and complement cloning. As such, the sequence of X is not critical. One skilled in the art can readily construct the appropriate linker. The DNA sequence encoding each GST-X-SH2 fusion protein was designed such that the indicated restriction sites (BamH1 and EcoRI) flank the SH2 region. […]

T1 sequence (P06241 143-252): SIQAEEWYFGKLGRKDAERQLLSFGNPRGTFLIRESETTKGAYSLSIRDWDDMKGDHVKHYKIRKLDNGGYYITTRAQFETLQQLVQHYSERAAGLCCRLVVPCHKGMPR

Ki (Ki calculated from IC50 with the expanded equation): > 1000 µM
IC50 (inhibition of binding of 0.1 uM biotinylated pY peptide to SH2 domain fusion protein): > 300 µM
SMILES: CCCCCCNC(=O)[C@H]1CC[C@H](CNC(=O)c2ccc(C(=O)c3ccc(C(=O)O)cc3)cc2)CC1 [Compound 6, 4-carboxy-benzophenone-4-carboxamido-trans-4-methyl-cyclohexyl-N-hexyl carboxamide]

Source: EP0728482A2, “Use of hcp specific compounds to enhance erythropoiesis” (SMITHKLINE BEECHAM CORPORATION, priority 1995, dated 1996)
